Earlier results, collected in patent US12728106B2, “Multiparticulate pharmaceutical composition of tamsulosin and solifenacin” (priority 2020, dated 2026).
Like-named read-outs stand apart in the source and are kept apart here.

O=C(O[C@H]1CN2CCC1CC2)N1CCc2ccccc2[C@@H]1c1ccccc1 [Solifenacin succinate, butanedioic acid compound with (1S)-(3R)-1-azabicyclo[2.2.2]oct-3-yl 3,4-dihydro-1-phenyl-2(1H)-iso-quinolinecarboxylate (1:1)]
Solubility in dimethyl sulfoxide (room temperature, dimethyl sulfoxide): freely soluble
Solubility in glacial acetic acid (room temperature, glacial acetic acid): freely soluble
Solubility in methanol (room temperature, methanol): freely soluble
Solubility in water (room temperature): freely soluble

CCOc1ccccc1OCCN[C@H](C)Cc1ccc(OC)c(S(N)(=O)=O)c1.Cl [Tamsulosin hydrochloride, (−)-(R)-5-[2-[[2-(o-Ethoxyphenoxy)ethyl]amino]propyl]-2methoxybenzenesulfonamide, monohydrochloride]
Solubility in water: sparingly soluble
